Data on 25 substances can be found in the OligoGym collection.

HELM strings list units from the 5' end as sugar, base in round brackets, then linkage (d deoxyribose, r ribose, m 2'-O-methyl, p phosphodiester). Strings are as the collection lists them; they lack the last nucleoside at the 3' end of the tested compound. [moe] = 2'-O-(2-methoxyethyl) (MOE); [sp] = phosphorothioate linkage; [m5C] = 5-methylcytosine

In the series the target is GFAP. The series is described as follows: mouse, dose not given. The conditions noted are these: ASO.
“RNA1{[moe](G)[sp].[moe]([m5C])p.[moe](T)p.[moe](T)p.[moe](T)p.d(T)[sp].d(G)[sp].d([m5C])[sp].d([m5C])[sp].d([m5C])[sp].d([m5C])[sp].d([m5C])[sp].d(T)[sp].d(G)[sp].d(T)[sp].[moe](A)p.[moe](G)p.[moe](T)[sp].[moe](G)}$$$$ (last 3' nucleoside missing)” gave a 3 h FOB score of 4 score 0-7.

Substance “RNA1{[moe](G)[sp].[moe]([m5C])p.[moe](T)p.[moe](T)p.d(T)[sp].d(T)[sp].d(G)[sp].d(A)[sp].d(G)[sp].d(A)[sp].d(T)[sp].d(A)[sp].d(T)[sp].d([m5C])[sp].[moe](T)p.[moe](T)p.[moe](G)p.[moe](T)[sp].[moe](G)}$$$$ (last 3' nucleoside missing)” showed a 3 h FOB score of 1 score 0-7.

The substance “RNA1{[moe](G)[sp].[moe]([m5C])p.[moe](T)p.[moe](T)p.d(T)[sp].d(T)[sp].d(G)[sp].d([m5C])[sp].d([m5C])[sp].d([m5C])[sp].d([m5C])[sp].d([m5C])[sp].d(T)[sp].d(G)[sp].[moe](T)p.[moe](A)p.[moe](G)p.[moe](T)[sp].[moe](G)}$$$$ (last 3' nucleoside missing)” showed a 3 h FOB score of 3 score 0-7.

In turn, “RNA1{[moe](G)[sp].[moe]([m5C])p.[moe](T)p.[moe]([m5C])p.[moe]([m5C])[sp].d([m5C])[sp].d(A)[sp].d([m5C])[sp].d(A)[sp].d([m5C])[sp].d(T)[sp].d(A)[sp].d([m5C])[sp].d(A)[sp].d(T)[sp].[moe](A)p.[moe](T)p.[moe](A)[sp].[moe](A)}$$$$ (last 3' nucleoside missing)” had a 3 h FOB score of 2 score 0-7.

Turning to “RNA1{[moe](G)[sp].[moe]([m5C])p.[moe]([m5C])p.[moe](A)p.[moe](A)[sp].d(A)[sp].d(T)[sp].d([m5C])[sp].d([m5C])[sp].d([m5C])[sp].d([m5C])[sp].d(T)[sp].d([m5C])[sp].d(T)[sp].d(T)[sp].[moe]([m5C])p.[moe]([m5C])p.[moe]([m5C])[sp].[moe](A)}$$$$ (last 3' nucleoside missing)”, the 3 h FOB score came out at 0 score 0-7.

In turn, “RNA1{[moe](G)[sp].[moe]([m5C])p.[moe]([m5C])p.[moe](A)p.[moe](G)p.[moe](T)p.d(G)[sp].d(T)[sp].d([m5C])[sp].d(T)[sp].d(T)[sp].d([m5C])[sp].d(A)[sp].d([m5C])[sp].d(T)[sp].d(T)[sp].[moe](T)p.[moe](G)[sp].[moe]([m5C])}$$$$ (last 3' nucleoside missing)” returned a 3 h FOB score of 1 score 0-7.

“RNA1{[moe](G)[sp].[moe]([m5C])p.[moe]([m5C])p.[moe](A)p.[moe](T)[sp].d(T)[sp].d(T)[sp].d(A)[sp].d(T)[sp].d([m5C])[sp].d(T)[sp].d(G)[sp].d(T)[sp].[moe](G)p.[moe]([m5C])p.[moe](T)[sp].[moe](T)}$$$$ (last 3' nucleoside missing)”: the 3 h FOB score was 1 score 0-7.

Substance “RNA1{[moe](G)[sp].[moe]([m5C])p.[moe]([m5C])p.[moe](A)p.[moe](T)[sp].d(T)[sp].d(T)[sp].d(A)[sp].d(T)[sp].d([m5C])[sp].d(T)[sp].d(G)[sp].d(T)[sp].d(G)[sp].d([m5C])[sp].[moe](T)p.[moe](T)p.[moe](T)[sp].[moe](A)}$$$$ (last 3' nucleoside missing)” returned a 3 h FOB score of 6 score 0-7.

With “RNA1{[moe](G)[sp].[moe]([m5C])p.[moe]([m5C])p.[moe](T)p.[moe](T)[sp].d([m5C])[sp].d([m5C])[sp].d([m5C])[sp].d(T)[sp].d(T)[sp].d(T)[sp].d([m5C])[sp].d([m5C])[sp].d(T)[sp].d(G)[sp].[moe](T)p.[moe]([m5C])p.[moe](T)[sp].[moe](G)}$$$$ (last 3' nucleoside missing)”, the 3 h FOB score was found to be 5 score 0-7.

In turn, “RNA1{[moe](T)[sp].[moe](A)p.[moe](G)p.[moe](T)p.[moe]([m5C])p.d(A)[sp].d(G)[sp].d([m5C])[sp].d([m5C])[sp].d(T)[sp].d(G)[sp].d(G)[sp].d(T)[sp].d(T)[sp].d(A)[sp].[moe](G)p.[moe]([m5C])p.[moe]([m5C])[sp].[moe](T)}$$$$ (last 3' nucleoside missing)” gave a 3 h FOB score of 4 score 0-7.

Turning to “RNA1{[moe](T)[sp].[moe](A)p.[moe](G)p.[moe](T)p.d([m5C])[sp].d(A)[sp].d(G)[sp].d([m5C])[sp].d([m5C])[sp].d(T)[sp].d(G)[sp].d(G)[sp].d(T)[sp].d(T)[sp].[moe](A)p.[moe](G)p.[moe]([m5C])p.[moe]([m5C])[sp].[moe](T)}$$$$ (last 3' nucleoside missing)”, the 3 h FOB score was determined as 3 score 0-7.

For the substance “RNA1{[moe](T)[sp].[moe](A)p.[moe](T)p.[moe](T)p.[moe](A)[sp].d(G)[sp].d(G)[sp].d(A)[sp].d(T)[sp].d([m5C])[sp].d([m5C])[sp].d([m5C])[sp].d(A)[sp].[moe](T)p.[moe]([m5C])p.[moe](T)[sp].[moe](A)}$$$$ (last 3' nucleoside missing)”, the 3 h FOB score came to 3 score 0-7.

The substance “RNA1{[moe](T)[sp].[moe](A)p.[moe](T)p.[moe]([m5C])p.[moe](T)[sp].d(G)[sp].d(T)[sp].d(G)[sp].d([m5C])[sp].d(T)[sp].d(T)[sp].d(T)[sp].d(A)[sp].[moe](G)p.[moe](T)p.[moe](G)[sp].[moe](A)}$$$$ (last 3' nucleoside missing)” displayed a 3 h FOB score of 3 score 0-7.

On to “RNA1{[moe](T)[sp].[moe](A)p.[moe]([m5C])p.[moe](A)p.[moe](T)[sp].d([m5C])[sp].d([m5C])[sp].d([m5C])[sp].d([m5C])[sp].d(T)[sp].d(T)[sp].d(T)[sp].d([m5C])[sp].d(T)[sp].d([m5C])[sp].[moe](T)p.[moe]([m5C])p.[moe]([m5C])[sp].[moe](T)}$$$$ (last 3' nucleoside missing)”, for which the 3 h FOB score turned out to be 1 score 0-7.

Take “RNA1{[moe](T)[sp].[moe](G)p.[moe](A)p.[moe](G)p.[moe](A)[sp].d(T)[sp].d(A)[sp].d(T)[sp].d([m5C])[sp].d(T)[sp].d(T)[sp].d(G)[sp].d(T)[sp].d(G)[sp].d(A)[sp].[moe]([m5C])p.[moe]([m5C])p.[moe](T)[sp].[moe](T)}$$$$ (last 3' nucleoside missing)”: the 3 h FOB score worked out at 6 score 0-7.

Turning to “RNA1{[moe](T)[sp].[moe](G)p.[moe](A)p.[moe](G)p.[moe](G)[sp].d([m5C])[sp].d(T)[sp].d(T)[sp].d(T)[sp].d(T)[sp].d(G)[sp].d(A)[sp].d(G)[sp].d(A)[sp].d(T)[sp].[moe](A)p.[moe](T)p.[moe]([m5C])[sp].[moe](T)}$$$$ (last 3' nucleoside missing)”, the 3 h FOB score is 3 score 0-7.

Take “RNA1{[moe](T)[sp].[moe](G)p.[moe](A)p.[moe](G)p.[moe](T)[sp].d(T)[sp].d(T)[sp].d([m5C])[sp].d(T)[sp].d(T)[sp].d(G)[sp].d(T)[sp].d(T)[sp].d(A)[sp].d(G)[sp].[moe](T)p.[moe](T)p.[moe](G)[sp].[moe](G)}$$$$ (last 3' nucleoside missing)”: the 3 h FOB score came to 6 score 0-7.

Take “RNA1{[moe](T)[sp].[moe](G)p.[moe](A)p.[moe](G)p.[moe](T)[sp].d([m5C])[sp].d(T)[sp].d([m5C])[sp].d(A)[sp].d(G)[sp].d(T)[sp].d(T)[sp].d(T)[sp].d(T)[sp].d([m5C])[sp].[moe]([m5C])p.[moe](T)p.[moe]([m5C])[sp].[moe]([m5C])}$$$$ (last 3' nucleoside missing)”: the 3 h FOB score worked out at 0 score 0-7.

For “RNA1{[moe](T)[sp].[moe](G)p.[moe](A)p.[moe]([m5C])p.[moe](T)p.[moe](A)p.d(T)[sp].d([m5C])[sp].d(T)[sp].d(A)[sp].d(G)[sp].d(G)[sp].d(A)[sp].d(T)[sp].d(T)[sp].d(T)[sp].[moe](G)p.[moe](G)[sp].[moe]([m5C])}$$$$ (last 3' nucleoside missing)”, the 3 h FOB score stood at 2 score 0-7.

As for “RNA1{[moe](T)[sp].[moe](G)p.[moe](A)p.[moe]([m5C])p.[moe](T)p.d(A)[sp].d(T)[sp].d([m5C])[sp].d(T)[sp].d(A)[sp].d(G)[sp].d(G)[sp].d(A)[sp].d(T)[sp].d(T)[sp].[moe](T)p.[moe](G)p.[moe](G)[sp].[moe]([m5C])}$$$$ (last 3' nucleoside missing)”, the 3 h FOB score is 3 score 0-7.

Take “RNA1{[moe](T)[sp].[moe](G)p.[moe](A)p.[moe]([m5C])p.[moe]([m5C])[sp].d(T)[sp].d(G)[sp].d(T)[sp].d(G)[sp].d(A)[sp].d([m5C])[sp].d(T)[sp].d(A)[sp].d(T)[sp].d([m5C])[sp].[moe](T)p.[moe](A)p.[moe](G)[sp].[moe](G)}$$$$ (last 3' nucleoside missing)”: the 3 h FOB score is 5 score 0-7.

The substance “RNA1{[moe](T)[sp].[moe](G)p.[moe](G)p.[moe](T)p.[moe](G)p.[moe]([m5C])p.d(T)[sp].d(T)[sp].d(T)[sp].d(T)[sp].d(G)[sp].d([m5C])[sp].d([m5C])[sp].d([m5C])[sp].d([m5C])[sp].d([m5C])[sp].[moe](T)p.[moe](G)[sp].[moe](T)}$$$$ (last 3' nucleoside missing)” showed a 3 h FOB score of 1 score 0-7.

Substance “RNA1{[moe](T)[sp].[moe](G)p.[moe](G)p.[moe](T)p.[moe](G)p.d([m5C])[sp].d(T)[sp].d(T)[sp].d(T)[sp].d(T)[sp].d(G)[sp].d([m5C])[sp].d([m5C])[sp].d([m5C])[sp].d([m5C])[sp].[moe]([m5C])p.[moe](T)p.[moe](G)[sp].[moe](T)}$$$$ (last 3' nucleoside missing)” showed a 3 h FOB score of 0 score 0-7.

“RNA1{[moe](T)[sp].[moe](G)p.[moe](G)p.[moe](T)p.[moe]([m5C])p.d([m5C])[sp].d(T)[sp].d(A)[sp].d(A)[sp].d(A)[sp].d(T)[sp].d(A)[sp].d(T)[sp].d(T)[sp].d([m5C])[sp].[moe](T)p.[moe](A)p.[moe](G)[sp].[moe](T)}$$$$ (last 3' nucleoside missing)”: the 3 h FOB score was determined as 1 score 0-7.

With “RNA1{[moe](T)[sp].[moe](G)p.[moe](G)p.[moe](T)p.d(G)[sp].d([m5C])[sp].d(T)[sp].d(T)[sp].d(T)[sp].d(T)[sp].d(G)[sp].d([m5C])[sp].d([m5C])[sp].d([m5C])[sp].[moe]([m5C])p.[moe]([m5C])p.[moe](T)p.[moe](G)[sp].[moe](T)}$$$$ (last 3' nucleoside missing)”, the 3 h FOB score stood at 1 score 0-7.
